Where a SMILES comes first, the peptide text is derived from it. Bridges are numbered along the chain shown (N, C = ends). [ ]: non-standard residue; d: D form. S5 = C=CCCC[C@](C)(N)C(=O)O
What was measured:
MDA-BoM-1833 cells = assay: Cell viability assay (CCK-8); type: cell-based; conditions: MDA-BoM-1833, 5 × 10^−6 M, 24 h
Method: (§2) MCF7, MDA‐MB‐231, and MDA‐BoM‐1833 cells (5000 cells/well) were seeded in 96‐well plates and cultured overnight at 37°C and 5% CO2. The cells were then treated with fresh basic medium containing various concentrations (1/2/5/10/20 × 10^−6 M) of compounds. After 24 h of incubation, the cells were incubated with a basic medium containing 10% Cell Counting Kit‐8 (Dojindo, CK‐04) for 2 h. Cell viability was evaluated by measuring the absorbance at 450 nm. The formula used was [(As‐Ab)/(Ac‐Ab)] × 100%, where as represents the absorbance of the drug‐treated group, Ac represents the absorbance of the control group treated with medium, and Ab represents the absorbance of the blank control containing only medium.

MCF7 cells = assay: Cell viability assay (CCK-8); type: cell-based, human; conditions: MCF7, 5 × 10^−6 M, 24 h
Method: as §2

[1] = test system: Nur77-knockdown MCF7 and MDA-MB-231 cells; assay: Cell viability assay (CCK-8), Nur77-knockdown breast tumor cells; type: cell-based; conditions: Nur77-knockdown MCF7 and MDA-MB-231, 24 h
Method: Cells were seeded 24 h prior to transfection. Transfection was performed with Transfect‐Mate (GenePharma, G04009) according to the manufacturer's protocols. To transfect siRNA into cells seeded on 6 well cell culture plates, 150 pmol of siRNA was mixed with 8 µL Transfect‐Mate, incubated at room temperature for 15 min, and then added to the cells. The medium was changed to DMEM after 6 h of culture, and the cells were incubated at 37 °C in a 5% CO2 incubator. 48 h later, the siRNA was successfully expressed and could be used for further experiments. The siRNAs used were listed in Table S1 (Supporting Information).

MDA-MB-231 cells = assay: Cell viability assay (CCK-8); type: cell-based; conditions: MDA-MB-231, 5 × 10^−6 M, 24 h
Method: as §2

Nur77-PPARγ complex = target: T1, Nur77-PPARγ complex (Homo sapiens, UniProt P22736); assay: NanoBiT assay of Nur77-PPARγ complex formation in HEK293T cells; type: cell-based; conditions: 1 × 10^−5 M peptide, 1 h, n = 3
T1 construct: expressed in transfected cells; host or cells: HEK293T
T1 sequence (P22736 whole entry, one chain of several): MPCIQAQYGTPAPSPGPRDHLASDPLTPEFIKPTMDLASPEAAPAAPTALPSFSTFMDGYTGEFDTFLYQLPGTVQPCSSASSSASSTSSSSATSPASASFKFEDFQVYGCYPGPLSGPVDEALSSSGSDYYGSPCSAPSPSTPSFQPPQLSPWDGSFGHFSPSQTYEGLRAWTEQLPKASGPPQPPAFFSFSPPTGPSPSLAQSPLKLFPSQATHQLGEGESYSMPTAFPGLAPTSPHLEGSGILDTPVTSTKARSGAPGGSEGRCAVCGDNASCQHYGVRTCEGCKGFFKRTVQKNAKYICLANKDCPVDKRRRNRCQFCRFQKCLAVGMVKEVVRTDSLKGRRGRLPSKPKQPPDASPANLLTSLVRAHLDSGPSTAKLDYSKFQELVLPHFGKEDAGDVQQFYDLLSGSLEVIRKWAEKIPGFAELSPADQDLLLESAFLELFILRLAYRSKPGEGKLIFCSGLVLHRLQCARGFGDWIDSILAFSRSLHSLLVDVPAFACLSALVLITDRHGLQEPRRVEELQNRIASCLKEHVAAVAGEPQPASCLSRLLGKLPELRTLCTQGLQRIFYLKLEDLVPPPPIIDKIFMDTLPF
Method: HEK293T cells were seeded in a poly‐d‐lysine‐coated black 96‐well cell culture plate at 10 000 cells per well in 100 µL culture medium. The next day, the master mix of 100 ng receptor construct containing the PPARγ‐LargeBit and SmallBit‐Nur77 plasmids (w/w, 50 ng:50 ng) was diluted in Opti‐MEM Medium (Gibco, 11058‐021), then P3000 Reagent was added. Meanwhile, 0.15 µL Lipofectamine 3000 reagent (ThermoFisher, L3000015) was added to 5 µL Opti‐MEM Medium. Subsequently, diluted DNA was added to Lipofectamine 3000 reagent (V/V, 1:1) and incubated for 15 min at room temperature. A mixture containing the above plasmids and Lipofectamine 3000 was prepared and added to each well. After 24 h, the cells were treated with 1 × 10^−5 M peptides (TAT, T‐CY14, S‐CY14, and ST‐CY14) or variable concentrations of ST‐CY‐14 (0.1/0.2/0.5/1/2/5/10/20/40 × 10^−6 M) for 1 h. The culture medium was replaced with 90 µL Tyrode's solution (Solarbio, T1420). Then, 10 µL furimazine (5 × 10^−5 M) was added to each well and the luminescence signal was measured every 86 s for 1 h at 37 °C.

[2] = test system: MDA-MB-231-GFP tumor tissue; assay: LC/MS targeted lipid metabolome of xenograft tumor tissue; type: in vivo, mouse; conditions: compared with the control group
Method: To establish the bone metastasis tumor model, 1×10^5 cells were injected into the left ventricle of each mouse (7–8 weeks old), and surgery was monitored using a cardiac ultrasound instrument. The mice were randomly divided into three groups and treated with PBS (control group, n = 6), 5 mg kg^−1 ST‐CY14 (n = 6), and 10 mg kg^−1 ST‐CY14 (n = 6) Tumor cell metastasis was monitored using an in vivo imaging instrument (IVIS Spectrum, PerkinElmer, USA). by intraperitoneal injection of 20 mg kg^−1 D‐luciferin. The mice were treated with ST‐CY14 via intravenous injection using a 100 µL PBS solution every 2 days starting on the designated day after tumor cell injection. Bone tissue with MDA‐BoM‐1833 cell metastasis was obtained and stained for TRAP. The mice sera were collected and analyzed for BSP and β‐CTx levels using ELISA (Lengton, BPE10823, BPE10438). For the orthotopic xenograft tumor model, 3×10^6 cells were injected into the fourth pair of breast pads on the left side of the mouse (4–5 weeks old). The mice were treated with ST‐CY14 every two days once the tumor volume reached 30–50 mm^3, with the same groups as in the bone metastasis tumor model. […]

α-chymotrypsin [3] = target: α-chymotrypsin (Bos taurus, UniProt P00766); assay: Protease stability in α-chymotrypsin solution; type: in vitro ADME; conditions: α-chymotrypsin, PBS pH 7.4, room temperature
Method: (§1) The peptides were dissolved in PBS (pH 7.4) to a final concentration of 1 × 10^−3 M. α‐Chymotrypsin was dissolved in PBS (5 × 10^−2 M, containing 2 × 10^−3 M CaCl2, pH 7.4) to a final concentration of 0.5 ng µL^−1. Subsequently, 100 µL peptides were incubated with α‐chymotrypsin (1 mL) at room temperature, and 100 µL of the digestion mixture was collected at different times (5/10/20/30/60/120/240/480 min) and added to a centrifuge tube containing 20 µL of 1 M HCl to quench the enzymatic reaction. The solution of α‐Chymotrypsin peptide fragments was monitored by analytical HPLC to determine the fraction of protease degradation at 214 nm.

α-chymotrypsin [4] = assay: Protease stability in α-chymotrypsin solution; type: in vitro ADME; conditions: α-chymotrypsin solution; α-chymotrypsin 0.5 ng µL^−1 in PBS (5 × 10^−2 M, 2 × 10^−3 M CaCl2, pH 7.4); 100 µL of 1 × 10^−3 M peptide + 1 mL enzyme; room temperature; 5-480 min; quenched with 1 M HCl; analytical HPLC at 214 nm
Method: as §1

C[C@@H](O)[C@@H]1NC(=O)[C@H](CCCNC(=N)N)NC(=O)[C@H](CCCNC(=N)N)NC(=O)[C@@](C)(NC(=O)[C@H](Cc2ccccc2)NC(=O)CNC(=O)[C@H](CCCCN)NC(=O)[C@H](CS)NC(=O)CNC(=O)[C@H](CCC(=O)O)NC(=O)[C@@H](N)CS)CCCC=CCCC[C@@](C)(C(=O)N[C@@H](CCCNC(=N)N)C(=O)N[C@@H](Cc2ccc(O)cc2)C(=O)N[C@@H](Cc2ccc(O)cc2)C(=O)NCC(=O)N[C@@H](CCCNC(=N)N)C(=O)N[C@@H](CCCCN)C(=O)N[C@@H](CCCCN)C(=O)N[C@@H](CCCNC(=N)N)C(=O)N[C@@H](CCCNC(=N)N)C(=O)N[C@@H](CCC(N)=O)C(=O)N[C@@H](CCCNC(=N)N)C(=O)N[C@@H](CCCNC(=N)N)C(=O)N[C@@H](CCCNC(=N)N)C(N)=O)NC1=O [ST-CY14] (H-CEGCKGF[S5]RRT[S5]RYYGRKKRRQRRR-NH2; staple 8-12)
Cell viability / proliferation (MDA-BoM-1833 cells): significantly attenuated breast tumor cell proliferation
Cell viability / proliferation (MCF7 cells): significantly attenuated breast tumor cell proliferation
Sensitivity of Nur77-knockdown breast tumor cells [1]: less sensitive to ST‐CY14
Cell viability / proliferation (MDA-MB-231 cells): significantly attenuated breast tumor cell proliferation
Effect on NanoBiT luminescence (Nur77-PPARγ complex) (Nur77-PPARγ complex): effectively inhibited the formation of the Nur77‐PPARγ complex
Relative abundance of lipid content (FA, PC, TAG, PE) in tumor tissue [2]: decreased
Improvement of proteolytic half-life versus T-CY14 (α-chymotrypsin [3]): seventeen‐fold improvement
half-life at 90.9 µM (α-chymotrypsin [4]): 1.46 h
